These results are taken from patent US7691901B2, “Carotenoid analogs or derivatives for the inhibition and amelioration of inflammation” (Cardax Pharmaceuticals Inc., priority 2004, dated 2010).

SMILES strings stand for the structures.

One data set deals with superoxide anion. The experiment in a line: Direct superoxide anion scavenging by EPR spectroscopy (DEPMPO spin-trap) in PMA-stimulated isolated human neutrophils. It is filed as cell-based. As to conditions: aqueous phase; statistical mixture of stereoisomers and individual stereoisomers. How it is done: Leukocyte Isolation and Preparation. Human polymorphonuclear leukocytes (PMNs) were isolated from freshly sampled venous blood of a single volunteer by Percoll density gradient centrifugation as described previously. Briefly, each 10 mL of whole blood was mixed with 0.8 mL of 0.1 M EDTA and 25 mL of saline. The diluted blood was then layered over 9 mL of Percoll at a specific density of 1.080 g/mL. After centrifugation at 400×g for 20 min at 20° C., the plasma, mononuclear cell, and Percoll layers were removed. Erythrocytes were subsequently lysed by addition of 18 mL of ice-cold water for 30 s, followed by 2 mL of 10× PIPES buffer (25 mM PIPES, 110 mM NaCl, and 5 mM KCl, titrated to pH 7.4 with NaOH). Cells were then pelleted at 4° C., the supernatant was decanted, and the procedure was repeated. After the second hypotonic cell lysis, cells were washed twice with PAG buffer [PIPES buffer containing 0.003% human serum albumin (HSA) and 0.1% glucose]. Afterward, PMNs were counted by light microscopy on a hemocytometer. The isolation yielded PMNs with a purity of >95%. The final pellet was then suspended in PAG-CM buffer (PAG buffer with 1 mM CaCl2 and 1 mM MgCl2). EPR Measurements. All EPR measurements were performed using a Bruker ER 300 EPR spectrometer operating at X-band with a TM110 cavity as previously described. The microwave frequency was measured with a Model 575 microwave counter (EIP Microwave, Inc., San Jose, Calif.). To measure superoxide anion (O2) generation from phorbol-ester (PMA)-stimulated PMNs, EPR spin-trapping studies were performed using the spin trap DEPMPO (Oxis, Portland, Oreg.) at 10 mM. 1×10^6 PMNs were stimulated with PMA (1 ng/mL) and loaded into capillary tubes for EPR measurements. To determine the radical scavenging ability of 3 and 9 in aqueous and ethanolic formulations, PMNs were pre-incubated for 5 minutes with test compound, followed by PMA stimulation.
Instrument settings used in the spin-trapping experiments were as follows: modulation amplitude, 0.32 G; time constant, 0.16 s; scan time, 60 s; modulation frequency, 100 kHz; microwave power, 20 milliwatts; and microwave frequency, 9.76 GHz. The samples were placed in a quartz EPR flat cell, and spectra were recorded. The component signals in the spectra were identified and quantified as reported previously.

In data set [1] the test system is ischemia-reperfusion injury. The experiment in a line: Ischemia-reperfusion injury, experimental infarction model. It is filed as in vivo, rodents. As to conditions: intravenous pretreatment.
Another data set has as its system o-tyrosine (oY/F). The experiment in a line: Thioglycollate/Zymosan-induced peritonitis model: molar ratios of o-tyrosine (oY/F). It is filed as in vivo, mice. How it is done: Thioglycollate/Zymosan—Induced Peritonitis Model: Wild-type mice were administered either 500 mg/kg body weight of disodium disuccinate astaxanthin (ddAst/Cardax™) in an oil emulsion vehicle, or normal saline (NS) as a negative control, by oral gavage at 24 hours intervals beginning 7 days prior to the induction of peritonitis. Peritonitis was induced experimentally as follows: mice were injected intraperitoneally with 1 ml of 4% by weight thioglycollate (Tg) broth, to induce the recruitment of proinflammatory cells to the peritoneum. Either 16 hours or 72 hours after recruitment, approximately half of the mice were injected intraperitoneally with 250 mg/kg body weight of zymosan (Z) for a further 4 hours. The mice not receiving zymosan underwent no further treatment. Peritoneal lavage was performed in control animals or animals treated with (ddAst) 16 hours post Tg injection, or 20 h following the combination of both Tg injection (16 hours) followed by Z injection (4 hours), as indicated (Tg/Z). Peritoneal lavages were performed with phosphate-buffered saline containing antioxidant (0.1 mM butylated hydroxytoluene (BHT)) and 2 mM of the metal chelator diethylenetriamine pentaacetic acid (DTPA) according to established practices in the art. The lavage suspensions were transferred to screw-capped tubes under an argon atmosphere, and immediately centrifuged at 1000 rpm in a table top microcentrifuge for 10 min at 4° C. to remove whole cells and debris. All analyses of lipid peroxidation products was performed on cell-free lavage supernatants. Cell pellets were resuspended in phosphate-buffered saline containing 0.1 mM BHT and 0.1 mM DTPA, and differential cell counts (macrophages, monocytes, eosinophils, lymphocytes, neutrophils, and erythrocytes) were performed on cytospun preparations of isolated cells according to established procedures in the art.
Electrospray ionization tandem mass spectrometry was used to simultaneously quantify individual molecular species of HETEs, HPETEs, the prostaglandin PGF2α, F2-isoprostanoids, hydroxy- and hydroperoxy-octadecadienoic acids (H(P)ODEs), and their precursors, arachidonic acid (AA) and linoleic acid (LA). Additionally, the molar ratios of o-tyrosine (oY/F). were measured.

The format of data set [2] is physicochemical. How it is done: Determination of aqueous solubility/dispersibility. 30.13 mg of 3 was added to 1 mL of USP-purified water. The sample was rotated for 2 hours, then centrifuged for 5 minutes. […] A 125-μL aliquot of the solution was then diluted to 25 mL. The sample was analyzed by UV/Vis spectroscopy at 436 nm, and the absorbance was compared to a standard curve compiled from 4 standards of known concentration.
The sample was rotated for 2 hours, then centrifuged for 5 minutes. […] A 125-μL aliquot of the solution was then diluted to 25 mL. The sample was analyzed by UV/Vis spectroscopy at 411 nm, and the absorbance was compared to a standard curve compiled from 4 standards of known concentration.

The mark [3] stands for this setting: 16 Hour Thioglycollate/4 Hour Zymosan.
Where [4] appears, read: 72 Hour Thioglycollate/4 Hour Zymosan.

Consider `CC1=C(/C=C/C(C)=C/C=C/C(C)=C/C=C/C=C(C)/C=C/C=C(C)/C=C/C2=C(C)C(=O)C(OC(=O)CCC(=O)O)CC2(C)C)C(C)(C)CC(OC(=O)CCC(=O)O)C1=O` (stereo not drawn) [Cardax, disodium disuccinate astaxanthin], for which the “direct scavenging of superoxide anion” value in the data set on superoxide anion is recorded as “potent direct scavengers of superoxide anion in the aqueous phase”. Also, in data set [1], the “cardioprotection” value is recorded as “significantly cardioprotective”. Further, the myocardial salvage entry in data set [1] (highest dose tested) is listed as “up to 56%”. Further, the “oY/F (mmol/mol), MEAN” value in the data set on o-tyrosine (oY/F) (setting [3]) is on record as 0.145 mmol/mol; in the data set on o-tyrosine (oY/F) (16 Hour Thioglycollate), 0.678 mmol/mol; in the data set on o-tyrosine (oY/F) (setting [4]), 0.249 mmol/mol; in the data set on o-tyrosine (oY/F) (72 Hour Thioglycollate), 0.257 mmol/mol; in the data set on o-tyrosine (oY/F) (Baseline) it was 0.595 mmol/mol. For the same compound, the “oY/F (mmol/mol), MEDIAN” value was 0.117 mmol/mol in the data set with o-tyrosine (oY/F) (setting [3]); 0.521 mmol/mol in the data set with o-tyrosine (oY/F) (16 Hour Thioglycollate); 0.118 mmol/mol in the data set on o-tyrosine (oY/F) (setting [4]); 0.198 mmol/mol in the data set with o-tyrosine (oY/F) (72 Hour Thioglycollate); 0.565 mmol/mol in the data set with o-tyrosine (oY/F) (Baseline). The “oY/F compared to NS” value in the data set on o-tyrosine (oY/F) (16 hours Tg/4 hour Z, 500 mg/kg oral gavage) is “significant decrease”. The same compound gave a water dispersibility in data set [2] of 8.64 mg/mL.
